Laboratory results from patent publication US20110269695A1, “NOVEL ANTI-AGING PEPTIDES AND COSMETIC AND/OR PHARMACEUTICAL COMPOSITION CONTAINING SAME” (ISP INVESTMENTS, priority 2009, published 2011).
Where no end group is shown, it is not given here.

Assays:
Clock protein [1] = assay: Immunolabeling of Clock protein in skin biopsies ex vivo; assay type: cell-based, human; conditions: treated skin
Description: (§1) A study of the activating effect of the peptide SEQ ID no. 3 was carried out by evaluating the expression of Clock, Per-1 and BMAL-1 proteins in skin biopsies ex vivo.
(§2) Ex vivo studies by immunolabeling have made it possible to evidence the expression of Clock, Per-1 and BMAL-1 proteins in skin samples. Samples of human skin are cultured at the air/liquid interface. The peptide SEQ ID no. 3 diluted to 1% (from a 10^−4M solution) is applied topically to these samples for 48 hr.
(§3) Skin samples not treated with the peptide SEQ ID no. 3 serve as a control. The skin samples are fixed with 10% formaldehyde and enclosed in paraffin. Sectional cuts of 3 μm are then made with a microtome. The immunolabeling is carried out after removal of the paraffin and unmasking of the antigenic sites. The immunolabeling for the Clock protein is carried out by means of an antibody (ABcam) diluted 1/250 and a secondary antibody diluted 1/50 and coupled to a fluorochrome.
(§4) The slides are then mounted in a suitable medium and observed under epifluorescence microscope (Nikon Eclipse E600).

Per-1 protein = assay: Immunolabeling of Per-1 protein in skin biopsies ex vivo; assay type: cell-based, human; conditions: treated skin
Description: as §1, §2, §3
The immunolabeling for the Per-1 protein is carried out by a polyclonal antibody (Cosmobio) diluted 1/100 and a secondary antibody diluted 1/50 and coupled to a fluorochrome.
as §4

BMAL-1 protein = assay: Immunolabeling of BMAL-1 protein in skin biopsies ex vivo; assay type: cell-based, human; conditions: treated skin
Description: as §1, §2, §3
The immunolabeling for the BMAL-1 protein is carried out by a polyclonal antibody (Aviva Systems Biology) diluted 1/120 and a secondary antibody diluted 1/50 and coupled to a fluorochrome.
as §4

Clock protein [2] = assay: Immunolabeling of Clock protein in skin samples aged artificially during culture; assay type: cell-based, human
Description: A study of the activating effect of the peptide SEQ ID no. 3 was carried out by evaluating the expression of the Clock protein in skin models, aged artificially during culture. The analysis was carried out after 62 hr and 134 hr of culturing.
Ex vivo studies by immunolabeling have made it possible to evidence the expression of the Clock protein in skin samples aged during culture. Samples of human skin are cultured at the air/liquid interface for 62 hr and 134 hr. The peptide SEQ ID no. 1 diluted to 1% (from a 10^−4M solution) is applied topically to these samples at a rate of two times per day during the period of the experiment.
as §3, with “μm are made with” for “μm are then made with”, “of an anti-rabbit antibody (ABcam)” for “of an antibody (ABcam)”
as §4

cultured fibroblasts = assay: Beta-galactosidase (X-gal) senescence labeling of cultured fibroblasts; assay type: cell-based; conditions: peptide diluted to 1%, once a day, versus untreated control cells
Description: A study of the anti-aging effect of the peptide SEQ ID no. 3 was carried out by evaluating the activity of the beta-galactosidase on cultured fibroblasts in the short and long term. In fact, beta-galactosidase is known to be present in senescent cells whereas beta-galactosidase activity is not found in pre-senescent, quiescent or immortal cells.
Fibroblasts cultured in 8-well labtecks are kept for 2 weeks (short term effect) or 7 weeks (long term effect) in the presence or absence of the peptide SEQ ID no. 3, diluted to 1% (from a 10^−4M solution). The treatment is carried out once a day. The cells which were untreated, but kept in culture for 2 or 7 weeks per the requirements of the experiment serve as controls. On the day of labeling, the cells are rinsed, fixed in a mixture (2% glutaraldehyde-2% formaldehyde) for 3 minutes. The cells are rinsed and 300 μl of (5-bromo-4-chloro-3 indolyl b-D-galactosidase), known commonly as X-gal (substrate of beta-galactosidase), are applied. Incubation is carried out for 24 hr in an incubator in the presence of CO2, then the cells are rinsed and the labteck is quickly placed in a suitable medium. Observation is carried out under transmission microscope. The principle is simple: when the cells are senescent and contain beta-galactosidase, the X-gal substrate is cleaved into a blue, insoluble product.

Clock protein [3] = assay: Western blot of Clock protein expression in cultured fibroblasts; assay type: cell-based
Description: A study of the activating effect of the peptide SEQ ID no. 2 was carried out by evaluating the expression of the Clock proteins by western blot in cultured fibroblasts. The technique of western blotting is a semi-quantitative method which makes it possible to evaluate the level of Clock proteins in cells.
Cultured fibroblasts are cultivated in containers with a diameter of 100 mm at 37° C. in a humidified atmosphere containing 5% CO2 for 18 hr in the presence or absence of the peptide SEQ ID no. 2, diluted to 1% (from a 10^−4M solution). The cells are rinsed and then removed from the support with the aid of an extraction buffer (20 mM TRIS, 150 mM NaCl, 10 mM EDTA, 0.2% triton […]) in the presence of a cocktail of protease inhibitors (Sigma). The proteins thus extracted are centrifuged at 4° C. at 10,000 rpm for 10 minutes, before being dosed by the BCA protein dosing kit (Pierce). The cellular lysates are mixed with a denaturing buffer and subjected to SDS-PAGE electrophoresis. The gel used is 4-12% Nupage (Invitrogen). The proteins are then transferred to a nitrocellulose membrane (Pal corporation). […] The quantitative evaluation of the proteins present in the cells was carried out using the chemiimager software (Alpha innotech Corporation USA).

Row | Substance | amount of Clock protein versus untreated skin (Clock protein [1]) | amount of PER-1 protein versus untreated skin (Per-1 protein) | amount of BMAL-1 protein versus untreated skin (BMAL-1 protein) | labeling of the Clock protein compared to untreated control, 62 hr (Clock protein [2]; after 62 hr of culturing) | labeling of the Clock protein compared to untreated control, 134 hr (Clock protein [2]; after 134 hr) | Beta-galactosidase activity (blue coloration), short term (cultured fibroblasts; 2 weeks) | Beta-galactosidase activity (blue coloration), long term (cultured fibroblasts; 7 consecutive weeks) | Intensity (%) of Clock protein, Experiment 1 (Clock protein [3]; 1% treatment (from a 10^-4M solution), 18 hr, cultured fibroblasts, luminous intensity compared to untreated control (100%)) | amount of Clock protein in the cultured fibroblasts (Clock protein [3]; peptide diluted to 1%, western blot)
1 | Ser-Thr-Pro-NH2 [SEQ ID no. 3] | greater | greater | greater | increased | largely increased | largely reduced | largely reduced | – | –
2 | Val-Ser-Thr-Pro-Glu-NH2 (VSTPE-NH2) [SEQ ID no. 2] | – | – | – | – | – | – | – | 154% | significantly increases
